The source of these data is patent publication US20070037263A1, “Novel acetoacetyl-coa reductase and process for producing optically active alcohol” (priority 2003, published 2007).

In the experiment the test system is RAX (acetoacetyl-CoA reductase). In words: Ethyl 4-chloroacetoacetate reducing activity of RAX in the presence of inhibitors. It is filed as biochemical. As to conditions: for enzyme activity inhibited (in words): summary of Table 1.
The mark [1] stands for this setting: inhibitor 1.0 mM, 10 mM ethyl 4-chloroacetoacetate, 0.25 mM NADPH, pH 6.5, 30° C., 3 minutes, activity without inhibitor = 100%.

For `O=[N+]([O-])[O-].[Ag+]` [AgNO3, silver nitrate], the “enzyme activity inhibited (in words)” value is “inhibited”. In addition, the Relative activity (inhibitor 0.1 mM, 10 mM ethyl 4-chloroacetoacetate, 0.25 mM NADPH, pH 6.5, 30° C., 3 minutes, activity without inhibitor = 100%) is on record as 0%.
As for `CCN1C(=O)C=CC1=O` [N-Ethylmaleimide], the Relative activity under setting [1] amounted to 103%.
As for `O=C(O)CN(CCN(CC(=O)O)CC(=O)O)CC(=O)O` [EDTA], the Relative activity (pH 6.5) came to 83%.
As for `O=S(=O)([O-])[O-].[Mg+2]` [MgSO4], under setting [1], the Relative activity is 100%.
For the molecule `[Cl][Mn][Cl]` [MnCl2], the Relative activity under setting [1] was 97%.
Take `O=S(=O)([O-])[O-].[Cu+2]` [CuSO4, copper sulfate]: the “enzyme activity inhibited (in words)” value is “inhibited”. Under setting [1], the Relative activity was determined as 0%.
In the case of `[Cl][Hg][Cl]` [HgCl2, mercury chloride], the “enzyme activity inhibited (in words)” value is “inhibited”. Also, the Relative activity (inhibitor 0.01 mM, 10 mM ethyl 4-chloroacetoacetate, 0.25 mM NADPH, pH 6.5, 30° C., 3 minutes, activity without inhibitor = 100%) was 0%.
For `[Cl-].[Cl-].[Co+2]` [CoCl2], the Relative activity (pH 6.5) was 108%.
Consider `O=C(O)c1cc[c]([Hg][Cl])cc1` [p-Chloromercuribenzoic acid], for which the “enzyme activity inhibited (in words)” value was “inhibited”. The Relative activity under setting [1] came to 0%.
For `O=C(O)CI` [Iodoacetic acid], under “pH 6.5”, the Relative activity turned out to be 98%.
Turning to `O=S(=O)(F)Cc1ccccc1` [Phenylmethylsulfonyl fluoride], the Relative activity under setting [1] came to 108%.
On the same count and under the same terms, the value for `O=S(=O)([O-])[O-].[Zn+2]` [ZnSO4] was 81%.
